Experimental data as given in PubChem BioAssay (NCI).
Where “and” joins values, the source holds several entries; their conditions need not be identical. Equal entries are not always repeated.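 Dose response: 5 concentrations. Exposure: 48 h. Format: 96-well plates. Endpoint: linear interpolation; highest concentration if not reached. Abbreviation: GI50, concentration required for 50% inhibition of growth. The concentration for full growth arrest is given as TGI.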

Key:
Experiment in all cases: NCI tumour cell line growth inhibition, 48 h
A549 NSCLC = tested on: A549 NSCLC
CCRF-CEM leukemia = tested on: CCRF-CEM leukemia
IGROV1 ovarian = tested on: IGROV1 ovarian
M14 melanoma = tested on: M14 melanoma
SN12C renal = tested on: SN12C renal
UO-31 renal = tested on: UO-31 renal
RXF 393 renal = tested on: RXF 393 renal
HOP-92 NSCLC = tested on: HOP-92 NSCLC
MDA-MB-435 = tested on: MDA-MB-435
T-47D breast = tested on: T-47D breast

Cc1ccc(NC(=O)CC2SC(=Nc3cccc(Cl)c3C)NC2=O)cc1 (stereo not given)
TGI (A549 NSCLC): > 100 µM | TGI (CCRF-CEM leukemia): > 100 µM | TGI (IGROV1 ovarian): > 100 µM | TGI (M14 melanoma): > 100 µM | TGI (SN12C renal): > 100 µM | TGI (UO-31 renal): 73.8 µM

COc1cc(/C=C(\C)c2ccc3c(c2)OCO3)cc(OC)c1OC
TGI (A549 NSCLC): > 100 µM | TGI (CCRF-CEM leukemia): > 100 µM | TGI (IGROV1 ovarian): > 100 µM | TGI (M14 melanoma): > 100 µM | TGI (RXF 393 renal): 99.5 µM | TGI (SN12C renal): > 100 µM | TGI (UO-31 renal): 79.2 µM

O=C(NC(=S)Nc1ccc(-c2nc3ccccc3[nH]2)cc1)c1ccc2ccccc2c1
GI50 (A549 NSCLC): 3.79 µM | TGI (A549 NSCLC): > 100 µM | GI50 (CCRF-CEM leukemia): 6 µM | TGI (CCRF-CEM leukemia): > 100 µM | GI50 (HOP-92 NSCLC): 2170 nM | TGI (HOP-92 NSCLC): 7.02 µM | GI50 (IGROV1 ovarian): 7.66 µM | TGI (IGROV1 ovarian): > 100 µM | GI50 (M14 melanoma): 4.79 µM | TGI (M14 melanoma): > 100 µM | GI50 (MDA-MB-435): 4.27 µM | TGI (MDA-MB-435): > 100 µM | GI50 (RXF 393 renal): 1920 nM | TGI (RXF 393 renal): 3.77 µM | GI50 (SN12C renal): 3.18 µM | TGI (SN12C renal): 9.81 µM | GI50 (UO-31 renal): 1.92 µM | TGI (UO-31 renal): 3.65 µM

CO[C@@H]1[C@H](N(C)C(=O)c2ccccc2)C[C@@H]2O[C@]1(C)n1c3ccccc3c3c4c(c5c6ccccc6n2c5c31)C(=O)NC4=O
GI50 (A549 NSCLC): 0.595 µM | TGI (A549 NSCLC): > 100 µM | GI50 (HOP-92 NSCLC): 173 nM | TGI (HOP-92 NSCLC): > 100 µM | GI50 (IGROV1 ovarian): 0.523 µM | TGI (IGROV1 ovarian): > 100 µM | GI50 (M14 melanoma): 0.68 µM | TGI (M14 melanoma): > 100 µM | GI50 (MDA-MB-435): 0.775 µM | TGI (MDA-MB-435): > 100 µM | GI50 (SN12C renal): 0.459 µM | TGI (SN12C renal): > 100 µM | GI50 (T-47D breast): 0.811 µM | TGI (T-47D breast): > 100 µM | GI50 (UO-31 renal): 0.211 µM | TGI (UO-31 renal): 1.46 µM

CN(CC(=O)O)S(=O)(=O)c1ccc(Cl)cc1
TGI (A549 NSCLC): > 100 µM | TGI (CCRF-CEM leukemia): > 100 µM | TGI (HOP-92 NSCLC): > 100 µM | TGI (IGROV1 ovarian): > 100 µM | TGI (M14 melanoma): > 100 µM | TGI (RXF 393 renal): > 100 µM | TGI (SN12C renal): > 100 µM | TGI (UO-31 renal): > 100 µM

NC(=S)N/N=C/c1cn(CCCl)c2ccccc12
TGI (A549 NSCLC): > 100 µM | TGI (CCRF-CEM leukemia): > 100 µM | TGI (HOP-92 NSCLC): > 100 µM | TGI (IGROV1 ovarian): > 100 µM | TGI (M14 melanoma): > 100 µM | TGI (RXF 393 renal): > 100 µM | TGI (SN12C renal): > 100 µM | TGI (UO-31 renal): > 100 µM

N#C/C(=C\c1ccc([N+](=O)[O-])cc1)n1nnc2cc(F)c(F)cc21
GI50 (A549 NSCLC): 2.62 µM | TGI (A549 NSCLC): 9.04 µM | GI50 (CCRF-CEM leukemia): 1.94 µM | TGI (CCRF-CEM leukemia): 21.9 µM | GI50 (IGROV1 ovarian): 1.72 µM | TGI (IGROV1 ovarian): 4 µM | GI50 (M14 melanoma): 1.83 µM | TGI (M14 melanoma): 3.74 µM | GI50 (MDA-MB-435): 2.32 µM | TGI (MDA-MB-435): 5.85 µM | GI50 (RXF 393 renal): 1040 nM | TGI (RXF 393 renal): 2.39 µM | GI50 (SN12C renal): 1.77 µM | TGI (SN12C renal): 3.61 µM | GI50 (T-47D breast): 1.09 µM | TGI (T-47D breast): 2.74 µM | GI50 (UO-31 renal): 1.25 µM | TGI (UO-31 renal): 2.5 µM

OCC(O)COc1ccc(F)cc1 (stereo not given)
TGI (A549 NSCLC): > 100 µM | TGI (CCRF-CEM leukemia): > 100 µM | TGI (HOP-92 NSCLC): > 100 µM | TGI (IGROV1 ovarian): > 100 µM | TGI (M14 melanoma): > 100 µM | TGI (RXF 393 renal): > 100 µM | TGI (SN12C renal): > 100 µM | TGI (UO-31 renal): > 100 µM

COC(=O)CC12CC(NC(=O)c3csc([C@@H](C[C@H](C(C)C)N(C)C(=O)[C@@H](NC(=O)[C@H]4CCCCN4C)C(C)C)OC(C)=O)n3)(C1)C2
GI50 (A549 NSCLC): 0.00777 µM and 0.013 µM | TGI (A549 NSCLC): > 33.3 µM | GI50 (CCRF-CEM leukemia): 0.0036 µM and 0.00718 µM | TGI (CCRF-CEM leukemia): > 33.3 µM | GI50 (HOP-92 NSCLC): 17.4 nM | TGI (HOP-92 NSCLC): 4.73 µM | GI50 (IGROV1 ovarian): 0.00917 µM and 0.0162 µM | TGI (IGROV1 ovarian): > 33.3 µM | GI50 (M14 melanoma): 0.00355 µM | GI50 (MDA-MB-435): 0.000341 µM and 0.00333 µM | TGI (MDA-MB-435): 0.00165 µM and 0.00449 µM | GI50 (SN12C renal): 0.00446 µM and 0.0202 µM | TGI (SN12C renal): > 33.3 µM | TGI (UO-31 renal): > 33.3 µM

N#CCC(=O)N/N=C(/C(=O)Nc1ccccc1)C1C(=O)N(c2ccccc2)N=C1N (stereo not given)
TGI (A549 NSCLC): > 100 µM | TGI (CCRF-CEM leukemia): > 100 µM | TGI (HOP-92 NSCLC): > 100 µM | TGI (IGROV1 ovarian): > 100 µM | TGI (M14 melanoma): > 100 µM | TGI (RXF 393 renal): > 100 µM | TGI (SN12C renal): > 100 µM | TGI (UO-31 renal): > 100 µM

c1ccc2c(CNCCCN3CCN(CCCNCc4cccc5ccccc45)CC3)cccc2c1
TGI (A549 NSCLC): 4.25 µM | TGI (CCRF-CEM leukemia): 3 µM | TGI (HOP-92 NSCLC): 4.65 µM | TGI (IGROV1 ovarian): 10.1 µM | TGI (M14 melanoma): 2.42 µM | TGI (RXF 393 renal): 2.4 µM | TGI (SN12C renal): 13.5 µM | TGI (UO-31 renal): 3.22 µM

COC(=O)C(=O)C(C(=O)C(=O)Nc1ccccc1C(N)=O)c1nc2ccc([N+](=O)[O-])cc2[nH]c1=O (stereo not given)
TGI (A549 NSCLC): > 100 µM | TGI (CCRF-CEM leukemia): > 100 µM | TGI (HOP-92 NSCLC): > 100 µM | TGI (IGROV1 ovarian): > 100 µM | TGI (M14 melanoma): > 100 µM | TGI (RXF 393 renal): > 100 µM | TGI (SN12C renal): > 100 µM | TGI (UO-31 renal): > 100 µM

CC[C@@]1(O)C(=O)OCc2c1cc1n(c2=O)Cc2cc3c(OC)cccc3nc2-1
TGI (A549 NSCLC): 7.59 µM | GI50 (CCRF-CEM leukemia): 0.00022 µM | GI50 (HOP-92 NSCLC): 0.0599 nM | TGI (HOP-92 NSCLC): 0.685 µM | GI50 (IGROV1 ovarian): > 100 µM | TGI (IGROV1 ovarian): > 100 µM | GI50 (M14 melanoma): 0.00323 µM | TGI (M14 melanoma): 1.61 µM | GI50 (RXF 393 renal): 0.0413 nM | GI50 (SN12C renal): 0.00326 µM | TGI (SN12C renal): 3.4 µM | GI50 (T-47D breast): > 100 µM | TGI (T-47D breast): > 100 µM | GI50 (UO-31 renal): 0.00535 µM

COC(=O)Nc1nc2ccc(C(=O)C3CC3)cc2[nH]1
GI50 (A549 NSCLC): 0.452 µM | TGI (A549 NSCLC): > 100 µM | GI50 (CCRF-CEM leukemia): 0.332 µM | GI50 (IGROV1 ovarian): 0.29 µM | TGI (IGROV1 ovarian): 18.2 µM | GI50 (M14 melanoma): 0.276 µM | GI50 (MDA-MB-435): 0.134 µM | TGI (MDA-MB-435): 0.324 µM | GI50 (RXF 393 renal): 345 nM | GI50 (SN12C renal): 0.717 µM | TGI (SN12C renal): > 100 µM | GI50 (UO-31 renal): 3.21 µM | TGI (UO-31 renal): > 63.1 µM

ClCCN(CCCl)c1ccc(OCc2ccccc2)cc1
GI50 (A549 NSCLC): 2.53 µM | TGI (A549 NSCLC): 29.8 µM | GI50 (CCRF-CEM leukemia): 2.36 µM | TGI (CCRF-CEM leukemia): 27.6 µM | GI50 (IGROV1 ovarian): 7.03 µM | TGI (IGROV1 ovarian): 64 µM | GI50 (M14 melanoma): 4.16 µM | TGI (M14 melanoma): 42.2 µM | GI50 (MDA-MB-435): 8.16 µM | TGI (MDA-MB-435): 32.6 µM | GI50 (SN12C renal): 2.76 µM | TGI (SN12C renal): 58.6 µM | GI50 (T-47D breast): 4.4 µM | TGI (T-47D breast): 28.7 µM | GI50 (UO-31 renal): 3.99 µM | TGI (UO-31 renal): 41.4 µM

O=[N+]([O-])c1cccc(C=NC23CC4CC(CC(C4)C2)C3)c1
TGI (A549 NSCLC): > 100 µM | TGI (CCRF-CEM leukemia): > 100 µM | TGI (HOP-92 NSCLC): > 100 µM | TGI (IGROV1 ovarian): > 100 µM | TGI (M14 melanoma): > 100 µM | TGI (RXF 393 renal): > 100 µM | TGI (SN12C renal): > 100 µM | TGI (UO-31 renal): > 100 µM

Nc1n[nH]c2ccc([C@H]3[C@@H]4C5CCC(C5)[C@@H]4c4c(ccc5[nH]ncc45)N3S(=O)(=O)C3CC3)cc12 (stereo not given in full)
GI50 (A549 NSCLC): 0.237 µM | TGI (A549 NSCLC): > 25.6 µM | GI50 (CCRF-CEM leukemia): 0.168 µM | TGI (CCRF-CEM leukemia): > 21.3 µM | GI50 (HOP-92 NSCLC): 422 nM | TGI (HOP-92 NSCLC): 11.1 µM | GI50 (IGROV1 ovarian): 0.269 µM | TGI (IGROV1 ovarian): > 38.7 µM | GI50 (M14 melanoma): 0.146 µM | TGI (M14 melanoma): 15.1 µM | GI50 (MDA-MB-435): 0.141 µM | TGI (MDA-MB-435): 1.35 µM | GI50 (SN12C renal): 0.272 µM | TGI (SN12C renal): > 50 µM | GI50 (UO-31 renal): 0.298 µM | TGI (UO-31 renal): 29.2 µM

CCOC(=O)c1sc(Nc2cc(Cl)ccc2Cl)nc1C
TGI (A549 NSCLC): > 100 µM | TGI (HOP-92 NSCLC): 96.6 µM | TGI (IGROV1 ovarian): > 100 µM | TGI (RXF 393 renal): > 100 µM | TGI (SN12C renal): > 100 µM | TGI (UO-31 renal): > 100 µM
